Reference: paper doi:10.1101/2024.06.13.594677v1 (biorxiv, 2024)
Like-named read-outs stand apart in the source and are kept apart here.

Key:
human 5-HT2A receptor [1] = target: T1, human 5-HT2A receptor (Homo sapiens, UniProt P28223); parameters: species or system SH-SY5Y expressing human 5-HT2A; conditions: agonist
rat 5-HT2A receptor [2] = target: T2, rat 5-HT2A receptor (Rattus norvegicus, UniProt P14842); parameters: species or system C6 glioma (endogenous rat 5-HT2A); conditions: relative to 10 uM 5-HT; agonist
human 5-HT2A receptor [3] = target: T1, human 5-HT2A receptor; parameters: species or system SH-SY5Y expressing human 5-HT2A; conditions: agonist; remark: listed apart in the source
rat 5-HT2A receptor [4] = target: T2, rat 5-HT2A receptor
human 5-HT2A receptor [5] = target: T1, human 5-HT2A receptor; parameters: species or system SH-SY5Y expressing human 5-HT2A; conditions: agonist; remark: listed apart in the source
human 5-HT2A receptor [6] = target: T1, human 5-HT2A receptor; type: cell-based; conditions: Gq/IP1 agonism; LiCl; […] °C, […] h
human 5-HT2A receptor [7] = target: T1, human 5-HT2A receptor; type: cell-based; conditions: Gq/Ca2+ agonism; room temperature; HBSS with Ca2+
human 5-HT2A receptor [8] = target: T1, human 5-HT2A receptor; type: cell-based; conditions: beta-arrestin2 agonism; GRK2 and GRK3 co-expressed; DPBS with Ca2+; […] min
rat 5-HT2A receptor [9] = target: T2, rat 5-HT2A receptor; assay: cytosolic Ca2+; type: cell-based; conditions: Gq/Ca2+ agonism; room temperature; HBSS with Ca2+

T2 sequence (P14842 whole entry): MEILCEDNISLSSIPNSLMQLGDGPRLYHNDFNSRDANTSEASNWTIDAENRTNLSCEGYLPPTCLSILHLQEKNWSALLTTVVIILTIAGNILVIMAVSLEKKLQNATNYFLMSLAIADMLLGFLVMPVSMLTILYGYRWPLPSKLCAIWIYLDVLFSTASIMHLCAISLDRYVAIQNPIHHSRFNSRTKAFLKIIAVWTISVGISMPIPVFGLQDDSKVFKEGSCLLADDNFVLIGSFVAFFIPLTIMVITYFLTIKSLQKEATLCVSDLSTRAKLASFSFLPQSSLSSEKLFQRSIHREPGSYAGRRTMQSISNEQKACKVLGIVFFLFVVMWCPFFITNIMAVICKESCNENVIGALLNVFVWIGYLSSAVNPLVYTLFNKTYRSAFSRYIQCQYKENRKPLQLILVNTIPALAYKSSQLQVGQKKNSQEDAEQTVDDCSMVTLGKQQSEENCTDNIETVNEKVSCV
T1 sequence (P28223 whole entry): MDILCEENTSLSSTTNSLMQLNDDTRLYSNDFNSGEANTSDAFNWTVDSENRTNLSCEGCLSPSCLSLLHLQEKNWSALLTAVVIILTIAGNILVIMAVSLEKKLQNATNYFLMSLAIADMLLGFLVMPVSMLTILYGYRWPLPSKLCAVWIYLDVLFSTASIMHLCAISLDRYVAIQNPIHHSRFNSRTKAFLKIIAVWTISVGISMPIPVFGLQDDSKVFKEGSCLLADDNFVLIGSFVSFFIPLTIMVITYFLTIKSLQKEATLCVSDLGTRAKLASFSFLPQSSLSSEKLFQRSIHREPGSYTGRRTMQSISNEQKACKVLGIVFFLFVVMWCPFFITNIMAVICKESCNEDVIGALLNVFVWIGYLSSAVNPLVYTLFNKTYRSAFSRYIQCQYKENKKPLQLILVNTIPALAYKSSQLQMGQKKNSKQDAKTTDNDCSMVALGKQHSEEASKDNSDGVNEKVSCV

| SMILES | β-arrestin2 Emax (human 5-HT2A receptor [1]) | Ca2+ Emax (C6) (rat 5-HT2A receptor [2]) [%] | Ca2+ Emax (human 5-HT2A receptor [3]) | EC50 (rat 5-HT2A receptor [4]) [nM] | IP1 Emax (human 5-HT2A receptor [5]) | pEC50 (human 5-HT2A receptor [6]) | pEC50 (human 5-HT2A receptor [7]) | pEC50 (human 5-HT2A receptor [8]) | pEC50 (rat 5-HT2A receptor [9]) |
| --- | --- | --- | --- | --- | --- | --- | --- | --- | --- |
| COc1ccc2[nH]cc(CCN(C)C)c2c1 [5-MeO-DMT, 5-methoxy-N,N-dimethyltryptamine] | 0.70 ± 0.020 | 0.36 ± 0.021 | 0.73 ± 0.033 | 240 | 0.93 ± 0.027 |  |  |  |  |
| COc1cc(CCNCc2ccccc2OC)c(OC)cc1Br [25B-NBOMe, 4-bromo-2,5-dimethoxy-N-(2-methoxybenzyl)phenethylamine] |  |  |  |  |  | 8.95 ± 0.28 | 7.84 ± 0.15 | 8.20 ± 0.079 | 8.10 ± 0.23 |
| CN(C)CCc1c[nH]c2cccc(O)c12 [psilocin] | 0.28 ± 0.019 | 0.12 ± 0.0079 | 0.40 ± 0.019 |  | 0.80 ± 0.030 |  |  |  | 7.15 ± 0.20 |
| COc1cc(CCNCc2ccccc2OC)c(OC)cc1Br [25B-NBOMe] | 0.88 ± 0.017 | 0.46 ± 0.027 | 0.57 ± 0.021 |  | 0.75 ± 0.040 |  |  |  |  |
| COc1cc(CC(C)N)c(OC)cc1I (stereo not shown) [DOI, 2,5-dimethoxy-4-iodoamphetamine] | 0.73 ± 0.027 | 0.32 ± 0.017 | 0.49 ± 0.019 |  | 1.12 ± 0.025 |  |  |  | 7.14 ± 0.16 |
| CCN(CC)C(=O)[C@@H]1C=C2c3cccc4[nH]cc(c34)C[C@H]2N(C)C1 [LSD] |  | 0.19 ± 0.0092 | 0.36 ± 0.027 |  | 0.78 ± 0.039 |  |  |  |  |
| COc1cc(CCN)cc(OC)c1OC [Mescaline, 3,4,5-trimethoxyphenethylamine] | 0.64 ± 0.059 | 0.40 ± 0.025 | 0.47 ± 0.031 | 295 | 0.81 ± 0.050 |  |  |  |  |
| COc1ccc2c3c([nH]c2c1)CCN(C)CC3 [TBG] | 0.19 ± 0.026 |  | 0.13 ± 0.033 |  | 0.35 ± 0.064 |  |  |  |  |
